What was measured:
[1] = 298.15 K; 101.33 kPa; Liquid
[2] = refractive index (Na D-line) (dimensionless); xn = mol fraction of the nth substance listed; settings: 101 kPa, Liquid

CO [methanol]
Settings	mass density [kg/m3]
[1]	786.49

CO [methanol] + CCn1cc[n+](C)c1.O=S(=O)([O-])C(F)(F)F
[2], x2 = 0
Settings	refractive index
288.15 K	1.33071
298.15 K	1.32653
308.15 K	1.32237
318.15 K	1.3182

CCO [ethanol] + CCn1cc[n+](C)c1.O=S(=O)([O-])C(F)(F)F
[2], x2 = 0
Settings	refractive index
288.15 K	1.36358
298.15 K	1.3593
308.15 K	1.35503
318.15 K	1.35073
328.15 K	1.3463

CCCO [propan-1-ol]
Settings	mass density [kg/m3]
[1]	799.56

CC(C)O [propan-2-ol] + CCn1cc[n+](C)c1.O=S(=O)([O-])C(F)(F)F
[2], x2 = 0
Settings	refractive index
288.15 K	1.37924
298.15 K	1.37492
308.15 K	1.37048
318.15 K	1.36586
328.15 K	1.36103
338.15 K	1.35599

CCn1cc[n+](C)c1.O=S(=O)([O-])C(F)(F)F [1-ethyl-3-methylimidazolium trifluoromethanesulfonate] + CCO
refractive index, [2]
Settings	288.15 K	298.15 K	308.15 K	318.15 K	328.15 K
x1 = 0.05087	1.37603	1.37224	1.36847	1.3647	1.36088
x1 = 0.1004	1.38531	1.38169	1.37828	1.37496	1.37123
x1 = 0.1504	1.39279	1.38937	1.38635	1.38336	1.3795
x1 = 0.201	1.39891	1.39566	1.39241	1.38923	1.38584
x1 = 0.2991	1.40822	1.40549	1.40179	1.39872	1.39607
x1 = 0.3976	1.41506	1.41187	1.40885	1.40581	1.40267
x1 = 0.4976	1.42051	1.41741	1.41441	1.41137	1.40841
x1 = 0.5935	1.4247	1.42164	1.41857	1.41564	1.41275
x1 = 0.6981	1.42832	1.42536	1.42243	1.41956	1.41673
x1 = 0.7994	1.43116	1.42826	1.42543	1.42262	1.41981
x1 = 0.8407	1.4322	1.42937	1.42653	1.42372	1.42093
x1 = 0.892	1.43344	1.43061	1.42781	1.42501	1.42222
x1 = 0.9444	1.43452	1.43172	1.42894	1.42619	1.42346
x1 = 1	1.43599	1.43322	1.4304	1.42767	1.42494

CCn1cc[n+](C)c1.O=S(=O)([O-])C(F)(F)F [1-ethyl-3-methylimidazolium trifluoromethanesulfonate] + CO
refractive index, [2]
Settings	288.15 K	298.15 K	308.15 K	318.15 K
x1 = 0.04981	1.35401	1.35019	1.34673	1.34425
x1 = 0.1006	1.37019	1.36654	1.3636	1.36131
x1 = 0.1503	1.38187	1.37846	1.37522	1.37261
x1 = 0.2002	1.39131	1.38786	1.38479	1.38175
x1 = 0.2516	1.39849	1.39527	1.39212	1.38903
x1 = 0.3018	1.40415	1.40103	1.3983	1.39535
x1 = 0.3977	1.41297	1.40987	1.40694	1.40394
x1 = 0.499	1.41931	1.4163	1.41325	1.41035
x1 = 0.5911	1.42382	1.42086	1.41783	1.41502
x1 = 0.7059	1.42818	1.42529	1.42236	1.41954
x1 = 0.8054	1.43127	1.42843	1.42553	1.42265
x1 = 0.8494	1.43236	1.42952	1.42665	1.42387
x1 = 0.9013	1.43359	1.4308	1.42799	1.42515
x1 = 1	1.43599	1.43322	1.4304	1.42767

CCn1cc[n+](C)c1.O=S(=O)([O-])C(F)(F)F [1-ethyl-3-methylimidazolium trifluoromethanesulfonate]
Settings	mass density [kg/m3]
[1]	1383.58

CC(C)O [propan-2-ol]
Settings	mass density [kg/m3]
[1]	780.89

CCO [ethanol]
Settings	mass density [kg/m3]
[1]	785.1

CCCO [propan-1-ol] + CCn1cc[n+](C)c1.O=S(=O)([O-])C(F)(F)F
[2], x2 = 0
Settings	refractive index
288.15 K	1.38732
298.15 K	1.38318
308.15 K	1.37897
318.15 K	1.37471
328.15 K	1.37036
338.15 K	1.36587
